Key:
[1] = logP by HPLC on reversed phase columns, method [a], pH 2.3 with 0.1% phosphoric acid and acetonitrile; assay type: physicochemical; conditions: method [a]: pH 2.3, 0.1% phosphoric acid and acetonitrile as eluent, EEC directive 79/831 Annex V.A8, reversed phase HPLC; for chromatographic logP: reversed phase HPLC columns, read-out: log p
[2] = logP(HCOOH) reported with HPLC/MS
[3] = system: Phytophthora infestans; assay: whole plant or invertebrate; assay type: in vivo; conditions: in Solanum lycopersicum, 168 h, read-out: efficacy
[4] = HCOOH (formic acid), logP(HCOOH), HPLC/MS

Compound | log p [1] | further results
C#Cc1cccc(CON=C(c2ccccc2)c2nnnn2C)n1 [Example 19] | 2.69^[a]; | log p ([2]; method [b]: LC-MS at pH 2.7, 0.1% formic acid in water and acetonitrile, linear gradient 10% to 95% acetonitrile): 2.7^[b]
CCCCCCOc1cccc(CON=C(c2ccccc2)c2nnnn2C)n1 [Example 20, N-{[6-(hexyloxy)pyridin-2-yl]methoxy}-1-(1-methyl-1H-tetrazol-5-yl)-1-phenylmethanimine] |  | chromatographic logP [1]: 5.39; chromatographic logP ([2]; logP(HCOOH), HPLC/MS): 5.39
Cn1nnnc1C(=NOCc1cccc(-c2cccc(CON=C(c3ccccc3)c3nnnn3C)n2)n1)c1ccccc1 [Example 21] | 4.36^[a] | 
Cn1nnnc1C(=NOCc1cccc(C#CC(C)(C)C)n1)c1ccccc1 [Example 22] | 4.19^[a] | 
CCCCC#Cc1cccc(CON=C(c2ccccc2)c2nnnn2C)n1 [Example 23, N-{[6-(hex-1-yn-1-yl)pyridin-2-yl]methoxy}-1-(1-methyl-1H-tetrazol-5-yl)-1-phenylmethanimine] |  | pest or weed control at 500 ppm [3]: ≥ 70%
Cn1nnnc1C(=NOCc1cccc(C#Cc2ccccc2)n1)c1ccccc1 [Example 25] | 4.04^[a] | 
Cn1nnnc1C(=NOCc1cccc(C#CC[Si](C)(C)C)n1)c1ccccc1 [Example 26] | 4.61^[a] | 
CCCC#Cc1cccc(CON=C(c2ccccc2)c2nnnn2C)n1 [Example 27] | 3.83^[a] | 
CC(C)[Si](C#Cc1cccc(CON=C(c2ccccc2)c2nnnn2C)n1)(C(C)C)C(C)C [Example 28] | 6.83^[a] | 
Cn1nnnc1C(=NOCc1cccc(C#CC2CCCC2)n1)c1ccccc1 [Example 29] | 4.34^[a] | 
Cn1nnnc1C(=NOCc1cccc(C#CC2CCCCC2)n1)c1ccccc1 [Example 30] | 4.77^[a] | 
Cn1nnnc1C(=NOCc1csc(Br)n1)c1ccccc1 [Example 32, N-[(2-bromo-1,3-thiazol-4-yl)methoxy]-1-(1-methyl-1H-tetrazol-5-yl)-1-phenyl-methanimine] |  | pest or weed control at 500 ppm [3]: ≥ 70%; chromatographic logP ([2]; logP(HCOOH), HPLC/MS): 3.11
COc1cccc(-c2cccc(CON=C(c3ccccc3)c3nnnn3C)n2)c1 [Example 33] | 3.89^[a] | 
Cn1nnnc1C(=NOCc1cccc(-c2ccc(C(F)(F)F)cc2)n1)c1ccccc1 [Example 34] | 4.62^[a] | 
Cn1nnnc1C(=NOCc1cccc(-c2ccc(-c3ccccc3)cc2)n1)c1ccccc1 [Example 35] | 5.05^[a] | 
Cn1nnnc1C(=NOCc1cccc(-c2ccc(OCc3ccccc3)cc2)n1)c1ccccc1 [Example 36] | 4.89^[a] | 
CN(CCc1ccccc1)c1nc(CON=C(c2ccccc2)c2nnnn2C)cs1 [Example 37] | 3.96^[a] | 
CCc1ccc(-c2cccc(CON=C(c3ccccc3)c3nnnn3C)n2)cc1 [Example 38] | 4.7^[a] | 
CCCCOc1ccc(-c2cccc(CON=C(c3ccccc3)c3nnnn3C)n2)cc1 [Example 39] | 5.2^[a] | 
Cn1nnnc1C(=NOCc1cccc(-c2ccc(OC(F)(F)F)cc2)n1)c1ccccc1 [Example 40] | 4.73^[a] | 
Cn1nnnc1C(=NOCc1cccc(-c2cc(Cl)cc(Cl)c2)n1)c1ccccc1 [Example 41] | 5.23^[a] | 
CCCCOc1cccc(-c2cccc(CON=C(c3ccccc3)c3nnnn3C)n2)c1 [Example 44] | 5.2^[a] | 

Compound | log p [1] | further results
Cn1nnnc1C(=NOCc1cccc(-c2cccc(C(F)(F)F)c2)n1)c1ccccc1 [Example 45] | 4.56^[a] | 
COCCCN(C)c1nc(CON=C(c2ccccc2)c2nnnn2C)cs1 [Example 46] | 2.59^[a] | 
Cn1nnnc1C(=NOCc1cccc(-c2cccc(Cl)c2)n1)c1ccccc1 [Example 47] | 4.49^[a] | 
CN(Cc1ccccc1)c1nc(CON=C(c2ccccc2)c2nnnn2C)cs1 [Example 48] | 3.89^[a] | 
Cn1nnnc1C(=NOCc1csc(N2CCCCC2)n1)c1ccccc1 [Example 49] | 3.39^[a] | 
CCCCCCN(C)c1nc(CON=C(c2ccccc2)c2nnnn2C)cs1 [Example 50] | 4.56^[a] | 
CCCCCN(C)c1nc(CON=C(c2ccccc2)c2nnnn2C)cs1 [Example 51] | 4.01^[a] | 
Cn1nnnc1C(=NOCc1csc(C#Cc2ccccc2)n1)c1ccccc1 [Example 59] | 4.16^[a] | 
CC(C)CC#Cc1nc(CON=C(c2ccccc2)c2nnnn2C)cs1 [Example 61] | 4.34^[a] | 
Cn1nnnc1C(=NOCc1csc(C#CCCCc2ccccc2)n1)c1ccccc1 [Example 62] | 4.78^[a] | 
CCCC(C)C#Cc1nc(CON=C(c2ccccc2)c2nnnn2C)cs1 (stereo not shown) [Example 64] | 4.78^[a] | 
CC(C)CCC#Cc1nc(CON=C(c2ccccc2)c2nnnn2C)cs1 [Example 65] | 4.75^[a] | 
Cn1nnnc1C(=NOCc1csc(C#CCC2CCCC2)n1)c1ccccc1 [Example 66] | 4.92^[a] | 
Cn1nnnc1C(=NOCc1csc(C#CCC2CCCCC2)n1)c1ccccc1 [Example 67] | 5.32^[a] | 
Cn1nnnc1C(=NOCc1csc(C#CC2CCCCC2)n1)c1ccccc1 [Example 68] | 4.89^[a] | 
Cn1nnnc1C(=NOCc1csc(C#CC2CCCC2)n1)c1ccccc1 [Example 69] | 4.49^[a] | 
COCC#Cc1nc(CON=C(c2ccccc2)c2nnnn2C)cs1 [Example 71] | 2.92^[a] | 
CCCCC#Cc1nc(CON=C(c2ccccc2)c2nnnn2C)cs1 [Example 72] | 4.36^[a] | 
Cn1nnnc1C(=NOCc1cccc(C(F)(F)C(F)(F)C(F)(F)C(F)(F)C(F)(F)C(F)(F)C(F)(F)F)n1)c1ccccc1 [Example 73] | 5.86^[a] | 
CCCCCSc1cccc(CON=C(c2ccccc2)c2nnnn2C)n1 [Example 74, 1-(1-methyl-1H-tetrazol-5-yl)-N-{[6-(pentylsulfanyl)pyridin-2-yl]methoxy}-1-phenylmethanimine] |  | chromatographic logP [1]: 5.14; chromatographic logP ([2]; HPLC/MS, logP(HCOOH)): 5.97
Cn1nnnc1C(=NOCc1cccc(NCCC2CCCCC2)n1)c1ccccc1 [Example 80, N-(2-cyclohexylethyl)-6-[({[(1-methyl-1H-tetrazol-5-yl)(phenyl)methylene]amino}oxy)methyl]pyridin-2-amine] |  | pest or weed control at 500 ppm [3]: ≥ 70%
CCCCC/C=C/c1nc(CON=C(c2ccccc2)c2nnnn2C)cs1 [Example 81] | 5.05^[a] | 

Compound | log p [1] | further results
CCCCCC/C=C/c1nc(CON=C(c2ccccc2)c2nnnn2C)cs1 [Example 82] | 5.53^[a] | 
COc1cccc(/C=C/c2cccc(CON=C(c3ccccc3)c3nnnn3C)n2)c1 [Example 87] | 4.14^[a] | 
Cn1nnnc1C(=NOCc1csc(/C=C/Cc2ccccc2)n1)c1ccccc1 [Example 88] | 4.29^[a] | 
Cn1nnnc1C(=NOCc1csc(/C=C/C2CCCCC2)n1)c1ccccc1 [Example 89] | 5.14^[a] | 
CCCCC/C=C/c1cccc(CON=C(c2ccccc2)c2nnnn2C)n1 [Example 90] | 5^[a] | 
Cn1nnnc1C(=NOCc1cccc(/C=C/c2cccc(F)c2)n1)c1ccccc1 [Example 91] | 4.29^[a] | 
CCCCCC/C=C/c1cccc(CON=C(c2ccccc2)c2nnnn2C)n1 [Example 92] | 5.5^[a] | 
Cn1nnnc1C(=NOCc1cccc(/C=C/Cc2ccccc2)n1)c1ccccc1 [Example 94] | 4.31^[a] | 
Cn1nnnc1C(=NOCc1cccc(/C=C/c2cc(F)cc(F)c2)n1)c1ccccc1 [Example 95] | 4.49^[a] | 
CCCCC#Cc1ccc(F)c(CON=C(c2ccccc2)c2nnnn2C)n1 [Example 99, N-{[3-fluoro-6-(hex-1-yn-1-yl)pyridin-2-yl]methoxy}-1-(1-methyl-1H-tetrazol-5-yl)-1-phenylmethanimine] |  | pest or weed control at 500 ppm [3]: ≥ 70%; chromatographic logP ([2]; logP(HCOOH), HPLC/MS): 4.41; chromatographic logP ([2]; reversed phase HPLC column, pH 2.7, log p, method [b]: LC-MS at pH 2.7, 0.1% formic acid in water and acetonitrile, linear gradient 10% to 95% acetonitrile): 4.41
CN(C)c1cccc(C(=O)c2nnnn2C)c1 [[3-(dimethylamino)phenyl](1-methyl-1H-tetrazol-5-yl)methanone] |  | chromatographic logP [2, 4]: 2.21
CSc1cccc(C(=O)c2nnnn2C)c1 [[3-(methylsulfanyl)phenyl](1-methyl-1H-tetrazol-5-yl)methanone] |  | chromatographic logP [2, 4]: 2.52
OCc1cccc(C2OCCO2)n1 [[6-(1,3-dioxolan-2-yl)pyridin-2-yl]methanol] |  | chromatographic logP [2, 4]: 0.54
COC(=O)c1nc(Br)sc1C [methyl 2-bromo-5-methyl-1,3-thiazole-4-carboxylate] |  | chromatographic logP ([2]; HPLC/MS): 1.84
CSc1cccc(C(=NOCc2cccc(N(CCC3CCCCC3)C(=O)OC(C)(C)C)n2)c2nnnn2C)c1 [tert-butyl (2-cyclohexylethyl)(6-{[({[3-(methylsulfanyl)phenyl](1-methyl-1H-tetrazol-5-yl)methylene}-amino)oxy]methyl}pyridin-2-yl)carbamate] |  | chromatographic logP [2, 4]: 6.83
CC(C)(C)OC(=O)N(CCC1CCCCC1)c1cccc(CO)n1 [tert-butyl (2-cyclohexylethyl)[6-(hydroxymethyl)pyridin-2-yl]carbamate] |  | chromatographic logP ([2]; logP(HCOOH), HPLC/MS): 4.49
CC(C)(C)OC(=O)Nc1cccc(Br)n1 [tert-butyl (6-bromopyridin-2-yl)carbamate] |  | chromatographic logP ([2]; logP(HCOOH), HPLC/MS): 4.11
CC(C)(C)OC(=O)Nc1cccc(C=O)n1 [tert-butyl (6-formylpyridin-2-yl)carbamate] |  | chromatographic logP ([2]; logP(HCOOH), HPLC/MS): 2.44
CC(C)(C)OC(=O)N(CCC1CCCCC1)c1cccc(CBr)n1 [tert-butyl [6-(bromomethyl)pyridin-2-yl](2-cyclohexylethyl)carbamate] |  | chromatographic logP [2, 4]: 6.79
CC(C)(C)OC(=O)Nc1cccc(CO)n1 [tert-butyl [6-(hydroxymethyl)pyridin-2-yl]carbamate] |  | chromatographic logP ([2]; logP(HCOOH), HPLC/MS): 1.14
